This note sets out measurements from PubChem BioAssay (NCI).

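In this assay, cells in 96-well plates receive the compound at five concentrations for 48 hours. Endpoints are linearly interpolated between the surrounding concentrations. Here, GI50 denotes the concentration required for 50% inhibition of growth. TGI: concentration producing complete growth inhibition.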

Assay in all cases: inhibition of tumour cell growth, NCI panel, 48 h
The test system of assay [1] is HL-60(TB) leukemia.
In assay [2] the test system is NCI-H522 lung.
Assay [3] relates to LOX IMVI melanoma.
In assay [4] the test system is SK-MEL-5 melanoma.
Assay [5] concerns EKVX NSCLC.
Assay [6] relates to SF-295 CNS.
Assay [7] concerns OVCAR-5 ovarian.
For assay [8], the system named is COLO 205 colon.
The subject of assay [9] is 786-0 renal.
Assay [10] deals with SK-MEL-28 melanoma.

For `COc1cccc(N2C(=N)/C(=C3\Nc4ccccc4S3)CC2=O)c1`, the GI50 in [1] is 4.85 µM; in assay [2] it was 8.22 µM; in assay [3], 3.21 µM; in assay [4], 7.78 µM; in assay [5], more than 100 µM; in assay [6] it was 1.64 µM. For the same compound, the GI50 is more than 100 µM in assay [7], 9.25 µM in [8], 4.91 µM in assay [9] and more than 100 µM in assay [10]. The TGI in assay [1] is more than 100 µM; in assay [2] it was more than 100 µM; in assay [3] it was more than 100 µM; in [4], more than 100 µM; in [5], more than 100 µM; in assay [6], 8.1 µM. The TGI in [7], in [8], in [9] and in [10] was more than 100 µM throughout.
For the compound `CC(=O)[CH-]C(=O)c1ccccc1.CC(=O)[CH-]C(=O)c1ccccc1.CC[C@H](CCC(C)[C@H]1CCC2[C@@H]3CC=C4C[C@@H]([O-])CC[C@]4(C)C3CC[C@@]21C)C(C)C.CC[C@H](CCC(C)[C@H]1CCC2[C@@H]3CC=C4C[C@@H]([O-])CC[C@]4(C)C3CC[C@@]21C)C(C)C.Cl.[Ti+4]` (stereo not given in full), the TGI in assay [1], in assay [2], in [3], in assay [4], in assay [5] and in assay [6] was more than 25 µM in each case. Further, the TGI in assay [7], in assay [8], in assay [9] and in assay [10] was more than 25 µM each time.
For `N#C/C(=C\c1ccc(O)c(O)c1)C(=O)NCc1cccc(C(F)(F)F)c1`, the GI50 in assay [1] is 4.73 µM; in assay [2], 7.71 µM; in [3], 11.4 µM; in assay [4], 5.29 µM; in assay [5], 13.7 µM; in assay [6], 1.97 µM. Further, the GI50 in [7] is 19.6 µM; in assay [8], 24.4 µM; in [9], 19 µM; in [10] it was 21.6 µM. The TGI in assay [1] stood at 92.3 µM; in assay [2] it was 63.2 µM; in assay [3] it was 26.4 µM; in assay [4] it was 19.3 µM; in [5] it was 39.8 µM; in assay [6], 15.7 µM. Moreover, the TGI was 55 µM in [7], 76.6 µM in assay [8], 45.5 µM in [9] and 72.6 µM in assay [10].
Consider `CN(C)CC1CCCC/C1=N\OC(=O)c1ccccc1` (stereo not given), for which the TGI in assay [1], in [2], in assay [3], in [4], in assay [5] and in [6] was more than 100 µM each time. For the same compound, the TGI in assay [7], in assay [8], in [9] and in [10] was more than 100 µM in each case.
Consider `[pH]1p2[pH]p3p1p3[pH]2.c1cc[c]([Ge]([c]2ccccc2)[c]2ccccc2)cc1.c1cc[c]([Ge]([c]2ccccc2)[c]2ccccc2)cc1.c1cc[c]([Ge]([c]2ccccc2)[c]2ccccc2)cc1`, for which the GI50 in assay [1] is 15.5 µM; in assay [2] it was 4.46 µM; in assay [3] it was 14.4 µM; in [4], 34.1 µM; in assay [5], 21.3 µM; in assay [6] it was 21.2 µM. Besides, the GI50 in [7] was 18.2 µM; in assay [8], 12.1 µM; in assay [9], 17.1 µM; in assay [10] it was 11.9 µM. In addition, the TGI in assay [1] worked out at 57.3 µM; in assay [2] it was 17.8 µM; in assay [3], 30.4 µM; in assay [4], 53.1 µM; in assay [5] it was 46.3 µM; in assay [6], 42.9 µM. In addition, the TGI in [7] is 34.1 µM; in assay [8], 26.2 µM; in assay [9], 32.3 µM; in [10], 25 µM.
Consider `NC(=S)N/N=C/C(O[C@@H](/C=N/NC(N)=S)CO)n1cnc2c(N)ncnc21` (stereo not given in full), for which the TGI in assay [1] was more than 100 µM; in assay [2] it was more than 72.4 µM; in assay [3], more than 100 µM; in [4] it was more than 100 µM; in assay [5], more than 100 µM; in assay [6], more than 100 µM. The TGI in assay [7] was more than 100 µM; in assay [8] it was more than 75.9 µM; in [9], more than 100 µM; in [10] it was more than 100 µM.
As for `Cc1cc(NS(=O)(=O)c2ccc(NC(=O)c3cccc4c(Nc5ccc(S(=O)(=O)Nc6cc(C)on6)cc5)c5ccc(Cl)cc5nc34)cc2)no1`, the TGI in [1], in [2], in assay [3], in assay [4], in assay [5] and in assay [6] was more than 100 µM in each case. Moreover, the TGI in assay [7], in assay [8], in assay [9] and in assay [10] was more than 100 µM throughout.
For the compound `Nc1nc(N)c2c(Cl)c(CNc3ccc(Cl)c(Cl)c3)ccc2n1`, the TGI was found to be 2.75 µM in assay [1]; 9.56 µM in assay [2]; 7.37 µM in assay [3]; 4.65 µM in [4]; 19.2 µM in assay [5]; 12.2 µM in assay [6]. The TGI came to 12.1 µM in assay [7], 13 µM in [8], 8.39 µM in assay [9] and 18.7 µM in assay [10].
Turning to `CCN(CC)CCOc1ccc2c(-c3ccccc3)c(-c3ccc(OC)cc3)c(=O)oc2c1`, the GI50 in assay [1] was 1.7 µM; in assay [2], 4.92 µM; in assay [3] it was 1.93 µM; in assay [4], 1.77 µM; in assay [5] it was 6.14 µM; in assay [6], 1.69 µM. Moreover, the GI50 in [7] is 12 µM; in assay [8] it was 1.85 µM; in [9], 2.22 µM; in [10] it was 1.96 µM. Moreover, the TGI in assay [1] is 3.98 µM; in assay [2], 18.5 µM; in assay [3] it was 4.27 µM; in assay [4], 3.55 µM; in assay [5], 20.3 µM; in [6], 3.62 µM. In addition, the TGI in assay [7] worked out at 24.9 µM; in [8] it was 3.72 µM; in assay [9] it was 5.37 µM; in assay [10], 4.38 µM.
